According to US8110348B2, “Methods and compositions for the diagnosis and treatment of schizophrenia” (priority 2005, dated 2012):
“Also recorded” adds a separate entry of the source.

Legend:
hippocampal neurons = assay: Primary and secondary dendrite number in cultured hippocampal neurons; assay type: cell-based, rat
Excerpt: In this example, the effects of overexpression of NOS1AP protein in neurons were examined using primary cultures of hippocampal neurons. cDNAs encoding the full-length NOS1AP protein (SEQ ID No. 2) and NOS1AP-S protein (SEQ ID No. 4) were separately cloned into expression vectors and transfected along with GFP (to elucidate neuronal morphology) at 10 days in vitro, a time when dendrite outgrowth and branching is rapidly occurring. It was hypothesized that NOS1AP may affect dendrite number since the NMDA receptor has been implicated in playing a role in regulating dendrite number, and overexpression of NOS1AP is thought to disrupt NMDA receptor signaling. Two days after transfection, the neurons were fixed, and dedrites were counted as described in Akum et al., Nat Neurosci 2004 February; 7(2):145-52, 2004 and Chen et al., Mol Biol Cell 2005 November; 16(11):5103-14. […] Since dendrite morphology is crucial to interneuronal communication, the increases in short-form NOS1AP protein seen in patients suffering from neuropsychiatric disorders, such as schizophrenia and bipolar disorders, may result in altered dendrite morphology in the hippocampus, and perhaps the DLPFC.
Neuronal cultures were prepared from hippocampi of rat embryos at 18 day gestation as described previously (Firestein et al., 1999). The hippocampi were dissociated, and cells were plated on poly-D-lysine-coated glass coverslips (12 mm diameter) at a density of 1800 cells/mm^2. Cultures were maintained in Neurobasal media supplemented with B27, penicillin, streptomycin, and L-glutamine. Cells were grown for 5-21 days in vitro (DIV) and used for specific experiments as indicated below.
cDNAs encoding human NOS1AP and several mutant forms of human NOS1AP were cloned into the expression vector pCMV6-XL4 (Origene). These plasmids are referred to directly as NOS1AP (or NOS1AP mutants) without indicating the vector. In addition, the fusion proteins GFP-NOS1AP-L (GFP-NPL), GFP-NOS1AP-S (GFP-NPS), and GFP-NOS1AP-181-307 (GFP-NOS1AP-M, GFP-NPM) were constructed in the pEGFP-C1 vector (Clontech Inc.). Cultured hippocampal neurons were transfected with the appropriate cDNA constructs as follows. Neurons were transfected on DIV 10 using […] following the manufacturer's protocol (Qiagen Inc.). Neurons were transfected on DIV 2, 5, or 7 using LIPOFECTAMINE-2000 following the manufacturer's protocol (Invitrogen Inc.). The Amaxa Nucleofector kit for Rat Neurons (Amaxa Inc., kit VPG-1003) was used to transfect newly dissected neurons (DIV 0) before plating.
Neurons were fixed in 4% paraformaldehyde in PBS for 30 minutes and then incubated in blocking solution (PBS containing 0.1% Triton X-100, 2% normal goat serum, and 0.02% sodium azide) for 1 h. All antibodies used were diluted in blocking solution. For GFP and NOS1AP or GFP and HA double immunostaining, dilutions of 1:1000 for rat anti-GFP and 1:500 for rabbit anti-NOS1AP, or 1:500 for goat anti-NOS1AP, or 1:1000 for mouse anti-HA (CRP Inc.) were used. […] Labeled cells were visualized by immunofluorescence on an Olympus Optical (Tokyo, Japan) IX50 microscope with a Cooke Sensicam charge-coupled device cooled camera fluorescence imaging system and Image Pro software (Media Cybernetics, Silver Spring, Md.).
Primary and secondary dendrite numbers were counted by hand with the experimenter blinded to the conditions (Akum et al., 2004). Pictures of neurons were contrast-enhanced and the numbers of primary and secondary dendrites for each neuron were recorded. […]

NOS1AP = assay: Knockdown of endogenous NOS1AP protein, immunofluorescence intensity in primary dendrites; assay type: cell-based, rat; conditions: hippocampal neurons transfected DIV 10, fixed DIV 12 (48 hours)
Excerpt: A) Hippocampal neurons were transfected with either pSUPER-scramble shRNA or pSUPER-NOS1AP shRNA at DIV10 and fixed at DIV12. B) Quantification of primary dendrites shown. C) Hippocampal neurons transfected with the same vectors as in A at DIV10 and fixed and immunostained for NOS1AP at DIV12. Zoomed inset indicates a representative region of primary dendrite showing corresponding fluorescence intensities of anti-NOS1AP. D) Quantification of NOS1AP levels in primary dendrite regions, as represented by normalized (total intensity/area) fluorescence intensity levels. *p<0.05 by Student's t-test.
A shRNA was constructed to knock down NOS1AP-L with the sequence 5′-[…]-3′ (SEQ ID NO: 22; position 790 of NM_138922) using the pSUPER vector. The resulting siRNA is specific to the long isoform of NOS1AP. […] Importantly, primary dendrite number increases by 67% when NOS1AP is knocked down (FIGS. 16A and B).

N[C@@H](CCCP(=O)(O)O)C(=O)O [APV]
additional decrease in dendrite branching (hippocampal neurons; NOS1AP-L transfected neurons treated with APV): does not result in any additional decrease
drop in primary dendrite branching (hippocampal neurons; control cells transfected with GFP alone, dosage of APV expected to fully block NMDA receptor function): approximately 25%

COC(=O)[C@@H](N)CCCNC(=N)N[N+](=O)[O-] [L-NAME, N(ω)-nitro-L-arginine-methyl ester]
difference in secondary dendrite number, NOS1AP-Long alone vs with L-NAME (hippocampal neurons; 500 μM L-NAME, FIG. 10C): smaller, yet the distinction was still clear
effect on NOS1AP-Long effects on dendrite branching (hippocampal neurons; L-NAME 500 μM (FIG. 10 legend prints 500 nM) added right after transfection DIV 10, fixed DIV 12): partial reduction of NOS1AP-Long effects; also recorded: reduced NOS1AP-Long (CP-L) activity

shRNA against NOS1AP-L: shRNA to knock down NOS1AP-L, sequence 5′-GCAATATCTTCAGATGCAA-3′ (SEQ ID NO: 22), in the pSUPER vector
increase in primary dendrite number (hippocampal neurons; NOS1AP knocked down, DIV 10-12, 48 hours, vs scramble shRNA): 67%
decrease in NOS1AP expression (knockdown of endogenous NOS1AP protein) (NOS1AP): 40%
decrease in NOS1AP expression (knockdown of endogenous NOS1AP protein) (NOS1AP; listed as SEQ ID NO: 22): 40%
decrease in NOS1AP expression (knockdown of endogenous NOS1AP protein) (NOS1AP; listed as shRNA Against NOS1AP Coding Sequence (Position 398)): Approximately 45%
